In patent publication US10597388B2, “Pyridazinone herbicides” (FMC CORPORATION, priority 2014, dated 2020):

How the values were obtained:
Assay type in all cases: in vivo
corn (Zea mays) = experiment: Test C greenhouse herbicide test, pre- and postemergence; details: Preemergence; for Plant response rating, Corn: scale 0 to 100, 0 is no effect, 100 is complete control
Method in brief: (§1)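 Two application timings: at sowing into a soil/sand blend, and on 2–18 cm seedlings in peat-vermiculite potting mix. A non-phytotoxic, surfactant-containing solvent carried the compounds. Plants were compared with controls and rated visually on 0–100 after 13–15 d.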

[1] = tested on: morningglory (Ipomoea coccinea); experiment: as above; details: Preemergence; for Plant response rating, Morningglory: scale 0 to 100, 0 is no effect, 100 is complete control
Method in brief: as §1

[2] = tested on: blackgrass (Alopecurus myosuroides); experiment: as above; details: Preemergence; for Plant response rating, Blackgrass: scale 0 to 100, 0 is no effect, 100 is complete control
Method in brief: as §1

[3] = tested on: pigweed (Amaranthus retroflexus); experiment: as above; details: Preemergence; for Plant response rating, Pigweed: scale 0 to 100, 0 is no effect, 100 is complete control
Method in brief: as §1

[4] = tested on: velvetleaf (Abutilon theophrasti); experiment: as above; details: Preemergence; for Plant response rating, Velvetleaf: scale 0 to 100, 0 is no effect, 100 is complete control
Method in brief: as §1

[5] = tested on: ryegrass, Italian (Italian ryegrass, Lolium multiflorum); experiment: as above; details: Preemergence; for Plant response rating, Ryegrass, Italian: scale 0 to 100, 0 is no effect, 100 is complete control
Method in brief: as §1

kochia (Kochia scoparia) = experiment: Test A greenhouse herbicide test, pre- and postemergence
Method in brief: (§2)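 Seeds sown in loam–sand blend got a preemergence directed soil spray of compound in non-phytotoxic solvent with surfactant. Postemergence treatment was given at 2–10 cm, one- to two-leaf stage. After ~10 d in greenhouse, injury was rated visually vs untreated controls, 0 (no effect) to 100 (complete control).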

[6] = tested on: ragweed (common ragweed, Ambrosia elatior); experiment: as above
Method in brief: as §2

[7] = tested on: pigweed (Amaranthus retroflexus); experiment: as above
Method in brief: as §2

[8] = tested on: wheat (Triticum aestivum); experiment: as above; details: Postemergence
Method in brief: as §2

[9] = tested on: foxtail, giant (giant foxtail, Setaria faberii); experiment: as above
Method in brief: as §2

[10] = 250 g ai/ha, scale 0 to 100, 0 no effect, 100 complete control
[11] = Postemergence, 125 g ai/ha, 0 to 100 scale where 0 is no effect and 100 is complete control
[12] = Postemergence, 500 g ai/ha, visual rating after approx. 10 d, 0 to 100 scale (0 no effect, 100 complete control)
[13] = Preemergence, 125 g ai/ha, 0 to 100 scale where 0 is no effect and 100 is complete control
[14] = Preemergence, 500 g ai/ha, 0 to 100 scale where 0 is no effect and 100 is complete control

CCC(=O)Oc1c(OC)nn(C)c(=O)c1-c1c(C)sc2ccc(Cl)cc12 [Compound 131]
Plant response rating, Corn (corn (Zea mays); 31 g ai/ha): 0
Plant response rating, Corn (corn (Zea mays); 62 g ai/ha): 0
Plant response rating, Corn (corn (Zea mays); 125 g ai/ha): 5
Corn plant response rating (corn (Zea mays); [10]): 15
Plant response rating, Morningglory ([1]; 31 g ai/ha): 35
Plant response rating, Morningglory ([1]; 62 g ai/ha): 55
Plant response rating, Morningglory ([1]; 125 g ai/ha): 85
Morningglory plant response rating [1, 10]: 95
Plant response rating, Blackgrass ([2]; 31 g ai/ha): 0
Plant response rating, Blackgrass ([2]; 62 g ai/ha): 40
Plant response rating, Blackgrass ([2]; 125 g ai/ha): 40
Blackgrass plant response rating [2, 10]: 90
Plant response rating, Pigweed ([3]; 31 g ai/ha): 60
Plant response rating, Pigweed ([3]; 62 g ai/ha): 100
Plant response rating, Pigweed ([3]; 125 g ai/ha): 100
Pigweed plant response rating [3, 10]: 100
Plant response rating, Velvetleaf ([4]; 31 g ai/ha): 0
Plant response rating, Velvetleaf ([4]; 62 g ai/ha): 55
Plant response rating, Velvetleaf ([4]; 125 g ai/ha): 85
Velvetleaf plant response rating [4, 10]: 95
Plant response rating, Ryegrass, Italian ([5]; 31 g ai/ha): 10
Plant response rating, Ryegrass, Italian ([5]; 62 g ai/ha): 80
Plant response rating, Ryegrass, Italian ([5]; 125 g ai/ha): 95
Ryegrass, Italian plant response rating [5, 10]: 95
Plant response rating, Kochia (kochia (Kochia scoparia); [11]): 60
Plant response rating, Kochia (kochia (Kochia scoparia); [12]): 80
Kochia plant response rating (kochia (Kochia scoparia); [13]): 0
Plant response rating, Kochia (kochia (Kochia scoparia); [14]): 20
Plant response rating, Ragweed [6, 11]: 100
Plant response rating, Ragweed [6, 12]: 90
Ragweed plant response rating [6, 13]: 40
Plant response rating, Ragweed [6, 14]: 60
Plant response rating, Pigweed [7, 11]: 60
Plant response rating, Pigweed [7, 12]: 90
Pigweed plant response rating [7, 13]: 80
Plant response rating, Pigweed [7, 14]: 100
Plant response rating, Wheat ([8]; 125 g ai/ha, 0 to 100 scale where 0 is no effect and 100 is complete control): 0
Plant response rating, Wheat ([8]; 500 g ai/ha, visual rating after approx. 10 d, 0 to 100 scale (0 no effect, 100 complete control)): 20
Plant response rating, Foxtail, Giant [9, 11]: 50
Plant response rating, Foxtail, Giant [9, 12]: 80
Foxtail, Giant plant response rating [9, 13]: 80
Plant response rating, Foxtail, Giant [9, 14]: 90
